Results as given in patent publication US11629171B2, “Beta-hairpin peptidomimetics” (POLYPHOR AG, priority 2017, dated 2023).
In brackets after ≈: the same amount, converted by molar mass. Where a SMILES comes first, the peptide text is derived from it. Bridges are numbered along the chain shown (N, C = ends). Roman numbers before positions name the chains, in order. [ ]: non-standard residue; d: D form. Tle = CC(C)(C)[C@H](N)C(=O)O; dDab = NCC[C@@H](N)C(=O)O; Dab = NCC[C@H](N)C(=O)O; Nva = CCC[C@H](N)C(=O)O; Abu = CC[C@H](N)C(=O)O; Dap = NC[C@H](N)C(=O)O

How the values were obtained:
Format in all cases: cell-based
[1] = system: Acinetobacter baumannii 872842; conditions: 872842
How it was run: (§1)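 CLSI broth microdilution in cation-adjusted Mueller-Hinton II broth with 0.002% polysorbate 80 (final), inoculum appr. 10^6 CFU/mL, peptides in serial two-fold dilutions. MIC (μg/mL) is the lowest concentration without visible growth after 18-20 h at 35° C.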

[2] = system: Acinetobacter baumannii DSM 30008; conditions: DSM 30008
How it was run: as §1

[3] = system: Enterobacter cloacae 848840; conditions: 848840
How it was run: as §1

[4] = system: Escherichia coli 926415; conditions: 926415
How it was run: as §1

[5] = system: Escherichia coli ATCC 25922; conditions: ATCC 25922
How it was run: as §1

[6] = system: Klebsiella pneumoniae 968733; conditions: 968733
How it was run: as §1

[7] = system: Klebsiella pneumoniae SSI #3010; conditions: SSI #3010
How it was run: as §1

[8] = system: Pseudomonas aeruginosa ATCC 27853; conditions: ATCC 27853
How it was run: as §1

[9] = system: human red blood cells (hRBC); experiment: Hemolysis; conditions: red cells of human, 1 h, 200
How it was run: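 Read-out is supernatant absorbance at 540 nm, normalised to full lysis by 2% Triton X-100 and zero lysis by PBS with 10% water. Peptides (200 μg/mL) were exposed to 20% v/v washed human erythrocytes at 37° C for 1 h under shaking.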

| MIC [1] | MIC [2] | MIC [3] | MIC [4] | MIC [5] | MIC [6] | MIC [7] | MIC [8] | SMILES | Hemolysis at 200 μg/mL [9] |
| --- | --- | --- | --- | --- | --- | --- | --- | --- | --- |
| 0.0625 µg/mL (≈ 0.0261 µM) | 0.0625 µg/mL (≈ 0.0261 µM) | 0.5 µg/mL (≈ 0.208 µM) | 0.125 µg/mL (≈ 0.0521 µM) | 0.03125 µg/mL (≈ 0.013 µM) | 0.125 µg/mL (≈ 0.0521 µM) | 0.125 µg/mL (≈ 0.0521 µM) | 0.25 µg/mL (≈ 0.104 µM) | CCC[C@@H]1NC(=O)[C@H](CO)NC(=O)[C@H](Cc2c[nH]c3ccccc23)NC(=O)[C@H](CCN)NC(=O)[C@@H](CCN)NC(=O)[C@H](CCC(=O)N[C@@H](CCN)C(=O)N[C@H](C(=O)N[C@@H](CN)C(=O)N[C@H]2CCNC(=O)[C@H]([C@@H](C)O)NC(=O)[C@H](CCN)NC(=O)[C@H](CCN)NC(=O)[C@H](CC(C)C)NC(=O)[C@@H](CC(C)C)NC(=O)[C@H](CCN)NC2=O)[C@@H](C)O)NC(=O)[C@H](CO)NC(=O)[C@H](Cc2ccc(O)cc2)NC(=O)[C@@H](NC(=O)[C@@H](NC(C)=O)C(C)C)CSSC[C@@H](C(=O)N[C@@H](CO)C(N)=O)NC1=O [Ex. 264] (I: Ac-VCYSE[dDab][Dab]WS[Nva]CS-NH2 / II: [Dab]T[Dap][Dab][Dab][dL]L[Dab][Dab]T; disulfide I:2-I:11; amide I:5-II:N; lactam II:4-II:C) | <1% |
| 0.0625 µg/mL (≈ 0.0259 µM) | 0.0625 µg/mL (≈ 0.0259 µM) | 0.125 µg/mL (≈ 0.0518 µM) | 0.0625 µg/mL (≈ 0.0259 µM) | 0.03125 µg/mL (≈ 0.013 µM) | 0.125 µg/mL (≈ 0.0518 µM) | 0.0625 µg/mL (≈ 0.0259 µM) | 0.0625 µg/mL (≈ 0.0259 µM) | CC(=O)N[C@H](C(=O)N[C@H]1CSSC[C@@H](C(=O)N[C@H](C(N)=O)[C@@H](C)O)NC(=O)[C@H](C(C)C)NC(=O)[C@H](CO)NC(=O)[C@H](Cc2c[nH]c3ccccc23)NC(=O)[C@H](CCN)NC(=O)[C@@H](CCN)NC(=O)[C@H](CCC(=O)N[C@@H](CCN)C(=O)N[C@H](C(=O)N[C@@H](CN)C(=O)N[C@H]2CCNC(=O)[C@H]([C@@H](C)O)NC(=O)[C@H](CCN)NC(=O)[C@H](CCN)NC(=O)[C@H](CC(C)C)NC(=O)[C@@H](CC(C)C)NC(=O)[C@H](CCN)NC2=O)[C@@H](C)O)NC(=O)[C@H](CO)NC(=O)[C@H](Cc2ccc(O)cc2)NC1=O)C(C)C [Ex. 267] (I: Ac-VCYSE[dDab][Dab]WSVCT-NH2 / II: [Dab]T[Dap][Dab][Dab][dL]L[Dab][Dab]T; disulfide I:2-I:11; amide I:5-II:N; lactam II:4-II:C) | <1% |

Continued, compound first:

| SMILES | MIC [1] | MIC [2] | MIC [3] | MIC [4] | MIC [5] | MIC [6] | MIC [7] | MIC [8] | Hemolysis at 200 μg/mL [9] |
| --- | --- | --- | --- | --- | --- | --- | --- | --- | --- |
| CC[C@@H]1NC(=O)[C@@H](CC(C)C)NC(=O)[C@H](CCN)NC(=O)[C@@H](NC(=O)[C@H](CN)NC(=O)[C@@H](NC(=O)[C@H](CCN)NC(=O)CC[C@@H]2NC(=O)[C@H](CO)NC(=O)[C@H](Cc3ccc(O)cc3)NC(=O)[C@@H](NC(=O)[C@@H](NC(C)=O)C(C)C)CSSC[C@@H](C(=O)N[C@H](C(N)=O)[C@@H](C)O)NC(=O)[C@H](C(C)(C)C)NC(=O)[C@H](CO)NC(=O)[C@H](Cc3c[nH]c4ccccc34)NC(=O)[C@H](CCN)NC(=O)[C@@H](CCN)NC2=O)[C@@H](C)O)CCNC(=O)[C@H]([C@@H](C)O)NC(=O)[C@H](CCN)NC(=O)[C@H](CCN)NC1=O [Ex. 256] (I: Ac-VCYSE[dDab][Dab]WS[Tle]CT-NH2 / II: [Dab]T[Dap][Dab][Dab][dL][Abu][Dab][Dab]T; disulfide I:2-I:11; amide I:5-II:N; lactam II:4-II:C) | 0.03125 µg/mL (≈ 0.013 µM) | 0.03125 µg/mL (≈ 0.013 µM) | 0.0625 µg/mL (≈ 0.0261 µM) | 0.0625 µg/mL (≈ 0.0261 µM) | 0.03125 µg/mL (≈ 0.013 µM) | 0.0625 µg/mL (≈ 0.0261 µM) | 0.03125 µg/mL (≈ 0.013 µM) | 0.0625 µg/mL (≈ 0.0261 µM) | 1% |
| CC(=O)N[C@H](C(=O)N[C@H]1CSSC[C@@H](C(=O)N[C@@H](CO)C(N)=O)NC(=O)[C@H](C(C)(C)C)NC(=O)[C@H](CO)NC(=O)[C@H](Cc2c[nH]c3ccccc23)NC(=O)[C@H](CCN)NC(=O)[C@@H](CCN)NC(=O)[C@H](CCC(=O)N[C@@H](CCN)C(=O)N[C@H](C(=O)N[C@@H](CN)C(=O)N[C@H]2CCNC(=O)[C@H]([C@@H](C)O)NC(=O)[C@H](CCN)NC(=O)[C@H](CCN)NC(=O)[C@H]([C@@H](C)O)NC(=O)[C@@H](CC(C)C)NC(=O)[C@H](CCN)NC2=O)[C@@H](C)O)NC(=O)[C@H]([C@@H](C)O)NC(=O)[C@H](Cc2ccc(O)cc2)NC1=O)C(C)C [Ex. 262] (I: Ac-VCYTE[dDab][Dab]WS[Tle]CS-NH2 / II: [Dab]T[Dap][Dab][Dab][dL]T[Dab][Dab]T; disulfide I:2-I:11; amide I:5-II:N; lactam II:4-II:C) | 0.0625 µg/mL (≈ 0.0259 µM) | 0.0625 µg/mL (≈ 0.0259 µM) | 0.0625 µg/mL (≈ 0.0259 µM) | 0.25 µg/mL (≈ 0.104 µM) | 0.03125 µg/mL (≈ 0.0129 µM) | 0.25 µg/mL (≈ 0.104 µM) | 0.03125 µg/mL (≈ 0.0129 µM) | 0.125 µg/mL (≈ 0.0518 µM) | 1% |
| CC(=O)N[C@H](C(=O)N[C@H]1CSSC[C@@H](C(=O)N[C@H](C(N)=O)[C@@H](C)O)NC(=O)[C@H](C(C)(C)C)NC(=O)[C@H](CO)NC(=O)[C@H](Cc2c[nH]c3ccccc23)NC(=O)[C@H](CCN)NC(=O)[C@@H](CCN)NC(=O)[C@H](CCC(=O)N[C@@H](CCN)C(=O)N[C@H](C(=O)N[C@@H](CN)C(=O)N[C@H]2CCNC(=O)[C@H]([C@@H](C)O)NC(=O)[C@H](CCN)NC(=O)[C@H](CCN)NC(=O)[C@H]([C@@H](C)O)NC(=O)[C@@H](CC(C)C)NC(=O)[C@H](CCN)NC2=O)[C@@H](C)O)NC(=O)[C@H]([C@@H](C)O)NC(=O)[C@H](Cc2ccc(O)cc2)NC1=O)C(C)C [Ex. 263] (I: Ac-VCYTE[dDab][Dab]WS[Tle]CT-NH2 / II: [Dab]T[Dap][Dab][Dab][dL]T[Dab][Dab]T; disulfide I:2-I:11; amide I:5-II:N; lactam II:4-II:C) | 0.0625 µg/mL (≈ 0.0257 µM) | 0.03125 µg/mL (≈ 0.0129 µM) | 0.125 µg/mL (≈ 0.0515 µM) | 0.125 µg/mL (≈ 0.0515 µM) | 0.03125 µg/mL (≈ 0.0129 µM) | 0.25 µg/mL (≈ 0.103 µM) | 0.03125 µg/mL (≈ 0.0129 µM) | 0.125 µg/mL (≈ 0.0515 µM) | 1% |
| CC(=O)N[C@H](C(=O)N[C@H]1CCNC(=O)C[C@@H](C(=O)N[C@@H](CO)C(N)=O)NC(=O)[C@H](C(C)(C)C)NC(=O)[C@H](CO)NC(=O)[C@H](Cc2c[nH]c3ccccc23)NC(=O)[C@H](CCN)NC(=O)[C@@H](CCN)NC(=O)[C@H](CCC(=O)N[C@@H](CCN)C(=O)N[C@H](C(=O)N[C@@H](CN)C(=O)N[C@H]2CCNC(=O)[C@H]([C@@H](C)O)NC(=O)[C@H](CCN)NC(=O)[C@H](CCN)NC(=O)[C@H](CC(C)C)NC(=O)[C@@H](CC(C)C)NC(=O)[C@H](CCN)NC2=O)[C@@H](C)O)NC(=O)[C@H](CO)NC(=O)[C@H](Cc2ccc(O)cc2)NC1=O)C(C)C [Ex. 265] (I: Ac-V[Dab]YSE[dDab][Dab]WS[Tle]DS-NH2 / II: [Dab]T[Dap][Dab][Dab][dL]L[Dab][Dab]T; lactam I:2-I:11, II:4-II:C; amide I:5-II:N) | 0.125 µg/mL (≈ 0.052 µM) | 0.0625 µg/mL (≈ 0.026 µM) | 0.5 µg/mL (≈ 0.208 µM) | 0.125 µg/mL (≈ 0.052 µM) | 0.0625 µg/mL (≈ 0.026 µM) | 0.25 µg/mL (≈ 0.104 µM) | 0.0625 µg/mL (≈ 0.026 µM) | 0.125 µg/mL (≈ 0.052 µM) | <1% |
